Test results reported in patent EP4389751A1, “HETEROCYCLIC COMPOUNDS AND USES THEREOF” (Kumquat Biosciences Inc., priority 2021, dated 2024).

molecular target: T1, K-Ras G12S (Homo sapiens, UniProt P01116, G12S); test: HTRF assay of the K-Ras / SOS1 interaction; type: biochemical; conditions: IC50 (against K-Ras G12D) to IC50 (against K-Ras G12S)
T1 construct: made in house; host or cells: E. coli (e.g., BL21 (DE3))
Description: This assay can be also used to assess a selective inhibition or reduction of signaling output of a mutant Ras protein relative to a wildtype, or relative to a different mutant Ras protein. For example, the equilibrium interaction of wildtype Kras or K-Ras mutant (e.g., wildtype or a mutant thereof including those mentioned in Example 6) with SOS1 (e.g., hSOS1) can be assessed as a proxy or an indication for a subject compound's ability to bind and inhibit Ras protein. HTRF assay detects from (i) a fluorescence resonance energy transfer (FRET) donor (e.g., antiGST-Europium) that is bound to GST-tagged K-Ras mutant to (ii) a FRET acceptor (e.g., anti-6His-XL665) bound to a His-tagged hSOS 1.
The assay buffer can contain ~5 mM HEPES pH 7.4, -150 mM NaCI, - 1 mM DTT, 0.05% BSA and 0.0025% (v/v) Igepal. A Ras working solution is prepared in an assay buffer containing typically a suitable amount of the protein construct (e.g., GST-tagged K-Ras mutant) and the FRET donor (e.g., antiGST-Eu(K) from Cisbio, France). A SOS1 working solution is prepared in an assay buffer containing suitable amount of the protein construct (e.g., His-hSOS1) and the FRET acceptor (e.g., anti-6His-XL665 from Cisbio, France). A suitable amount of the protein construct will depend on the range of activity or range of IC50 values being detected or under investigation. For detecting IC50 within a range of 500 nM, the protein constructs of the same range of molarity can be utilized.
A fixed volume of DMSO with or without test compound is transferred into a 384-well plate. Ras working solution is added to all wells of the test plate. SOS1 working solution is added to all wells except for those that are subsequently filled the inhibitor control solution. Upon incubation for about 10 minutes or longer, the fluorescence is measured with a M1000Pro plate reader (Tecan) using HTRF detection (excitation 337nm, emission 1 : 620nm, emission 2: 665nm). Compounds are tested in duplicates at different concentrations (for example, 10 µM, 2.5 µM, 0.63 µM, 0.16 µM, 0.04 µM, 0.01 µM test compound). The ratiometric data (i.e., emission 2 divided by emission 1) is used to calculate IC50 values against Ras using GraphPad Prism (GraphPad software). Following this general procedure, samples were tested with or without a subject compound disclosed herein including compounds exemplified in Table 3 to assess their abilities to inhibit K-Ras G12S relative to another mutant (e.g., K-Ras G12D). Signaling output measured in terms of IC50 values can be obtained, a ratio of IC50 against one mutant relative to another mutant can be calculated. For instance, a selective reduction of K-Ras G12S signaling output can be evidenced by a ratio greater than one. In particular, a selective reduction of K-Ras G12S signaling relative to K-Ras G12D signaling is evidenced as the ratio of IC50 (against K-Ras G12D) to IC50 (against K-Ras G12S) is greater than 1. […]

T1 sequence (P01116 1-188 isoform P01116-2 G12S): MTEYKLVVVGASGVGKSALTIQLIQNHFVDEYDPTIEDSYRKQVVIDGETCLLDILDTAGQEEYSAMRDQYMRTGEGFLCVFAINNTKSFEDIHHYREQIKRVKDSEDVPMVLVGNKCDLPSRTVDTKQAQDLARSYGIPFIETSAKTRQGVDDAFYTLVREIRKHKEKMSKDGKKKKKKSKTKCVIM

SMILES | Ratio of IC50 KRAS G12D vs. IC50 KRAS G12S
N#Cc1cnn(C(=O)N2C3CCC2CN(c2nc(OC[C@@]45CCCN4C[C@H](F)C5)nc4c(F)c(-c5cc(O)cc6ccccc56)ccc24)C3)c1 [Compound A120, 1-(3-(8-fluoro-2-(((2R,7aS)-2-fluorotetrahydro-1H-pyrrolizin-7a(5H)-yl)methoxy)-7-(3-hydroxynaphthalen-1-yl)quinazolin-4-yl)-3,8-diazabicyclo[3.2. 1]octane-8-carbonyl)-1H-pyrazole-4-carbonitrile] | A (A: indicates that the ratio of IC50 against KrasG12D vs. IC50 against KrasG12S is 1-fold or greater)
C[C@H](Oc1nc(N2CCCCC3(CN(C(=O)n4cncn4)C3)C2)c2cc(Cl)c(-c3ccc(F)c4sc(N)c(C#N)c34)c(F)c2n1)[C@@H]1CCCN1C [Compound A167, 4-(4-(2-(1H-1,2,4-triazole-1-carbonyl)-2,6-diazaspiro[3.6]decan-6-yl)-6-chloro-8-fluoro-2-((S)-1-((S)-1-methylpyrrolidin-2-yl)ethoxy)quinazolin-7-yl)-2-amino-7-fluorobenzo[b]thiophene-3-carbonitrile] | A (A: indicates that the ratio of IC50 against KrasG12D vs. IC50 against KrasG12S is 1-fold or greater)
N#Cc1c(N)sc2c(F)ccc(-c3c(Cl)cc4c(N5CCN(CC6CC6)C6(CN(C(=O)n7cncn7)C6)C5)nc(OC[C@@]56CCCN5C[C@H](F)C6)nc4c3F)c12 [Compound A139, 2-amino-4-(6-chloro-4-(5-(cyclopropylmethyl)-2-(1H-1,2,4-triazole-1-carbonyl)-2,5,8-triazaspiro[3.5]nonan-8-yl)-8-fluoro-2-(((2R,7aS)-2-fluorotetrahydro-1H-pyrrolizin-7a(5H)-yl)methoxy)quinazolin-7-yl)-7-fluorobenzo[b]thiophene-3-carbonitrile] | A (A: indicates that the ratio of IC50 against KrasG12D vs. IC50 against KrasG12S is 1-fold or greater)
N#Cc1ccn(C(=O)N2CC3CCC(C2)N3c2nc(OC[C@@]34CCCN3C[C@H](F)C4)nc3c(F)c(-c4ccc(F)c5sc(N)nc45)c(Cl)cc23)c1 [Compound A290, 1-(8-(7-(2-amino-7-fluorobenzo[d]thiazol-4-yl)-6-chloro-8-fluoro-2-(((2R,7aS)-2-fluorotetrahydro-1H-pyrrolizin-7a(5H)-yl)methoxy)quinazolin-4-yl)-3,8-diazabicyclo[3.2. 1]octane-3-carbonyl)-1H-pyrrole-3-carbonitrile] | A (A: indicates that the ratio of IC50 against KrasG12D vs. IC50 against KrasG12S is 1-fold or greater)
Nc1nc2c(-c3c(Cl)cc4c(N5CC(N6CCN(C(=O)n7cncn7)CC6)C5)nc(OC[C@@]56CCCN5C[C@H](F)C6)nc4c3F)ccc(F)c2s1 [Compound A166, (4-(1-(7-(2-amino-7-fluorobenzo[d]thiazol-4-yl)-6-chloro-8-fluoro-2-(((2R,7aS)-2-fluorotetrahydro-1H-pyrrolizin-7a(5H)-yl)methoxy)quinazolin-4-yl)azetidin-3-yl)piperazin-1-yl)(1H-1,2,4-triazol-1-yl)methanone] | A (A: indicates that the ratio of IC50 against KrasG12D vs. IC50 against KrasG12S is 1-fold or greater)
Nc1nc2c(-c3c(Cl)cc4c(N5CC6CCC5CN6C(=O)n5cncn5)nc(OC[C@@]56CCCN5C[C@H](F)C6)nc4c3F)ccc(F)c2s1 (stereo partly drawn) [Compound A192, (5-(7-(2-amino-7-fluorobenzo[d]thiazol-4-yl)-6-chloro-8-fluoro-2-(((2R,7aS)-2-fluorotetrahydro-1H-pyrrolizin-7a(5H)-yl)methoxy)quinazolin-4-yl)-2,5-diazabicyclo[2.2.2]octan-2-yl)(1H-1,2,4-triazol-1-yl)methanone] | A (A: indicates that the ratio of IC50 against KrasG12D vs. IC50 against KrasG12S is 1-fold or greater)
